Inhibition and IC50 data for 15 compounds are collected here from US10774082B2, “Quinazoline compound” (Astellas Pharma Inc., priority 2017, dated 2020).

The test system of one experiment is pERK in NCI-H1373 tumor. Kind of experiment: Intratumoral pERK inhibitory action in NCI-H1373 tumor of nude mice (TR-FRET). The format is in vivo, mouse. As to conditions: Mus musculus, 6 h, tumor six hours after administration. On the procedure: Evaluation of Intratumoral pERK Inhibitory Action
The phosphorylation amount of ERK in tumor sample after administration of test compound was examined by using pERK measurement kit (Advanced ERK phospho-T202/Y204 kit, Cisbio co., Ltd) through a TR-FRET method.
2.0 to 5.0×10^6 NCI-H1373 cells were prepared by using a solution in which an equivalent amount of Matrigel (Becton. Dickinson and Company) was added to PBS, were injected subcutaneously in a volume of 100 μL and planted to male nude mice of 4-5 weeks old (CAnN.Cg-Foxn 1 nu/CrlCrlj (nu/nu), Charles River Laboratories Japan, Inc.), and then the male nude mice were used for the test 15 to 26 days later. The test was conducted with three mice in a solvent group and three mice in a test compound administration group, and the test compounds were prepared by using a solvent such that the dosage thereof is as indicated in Table 4. The test compound was administered subcutaneously or orally. For subcutaneous administration, physiological saline supplemented with equimolar hydrochloric acid was used as a solvent. For oral administration, 6% 2-hydroxypropyl-β-cyclodextrin (Sigma-Aldrich Co. LLC) was used as a solvent. Six hours after the administration, a tumor was excised from a cervical dislocated mouse under isoflurane anesthesia, and a part thereof was put into a 2 mL Eppendorf tube and frozen using liquid nitrogen. The tumor sample was stored in a deep freezer at −80° C. until it was subjected to the pERK measurement test.
500 μL of lysis buffer 1 (Phospholysis buffer [Cisbio Co., Ltd], Complete EDTA free [Roche Diagnostics K.K.], Phosphatase inhibitor cocktail 2 [Sigma-Aldrich Co. LLC]) and one bead (5 mm YTZ ball [Nikkato Corp.]) was added to the tumor sample, and crushed (frequency 25/s for 3 minutes) by using Tissue Lyser II (QIAGEN GmbH). The whole amount was transferred to a new tube and centrifuged (20,400×g for 10 minutes, 4° C.) by using a micro amount high speed cooling centrifuge so as to obtain a tumor lysate which is a supernatant. Protein quantification of tumor lysate was performed by using a protein quantification kit (Pierce 660 nm Protein Assay Kit [Thermo Fisher Scientific Inc.]), and each sample was diluted by using lysis buffer 2 (Phosphorysis buffer [Cisbio Co., Ltd], Blocking Agent [attached to pERK measurement kit]) such that the amount thereof is to be a final concentration of 0.5 μg/μL.
Each of p-ERK1/2 Cryptate antibody and p-ERK1/2 d2 antibody (attached to pERK measurement kit) was diluted 20-fold with each detection buffer (attached to pERK measurement kit), and thereby a mixed solution of these two types of antibodies was prepared. A mixed solution of antibody was added to a 384 well plate at a volume of 4 μL/well. Further, tumor lysate diluted to 0.5 μg/μL was added at a volume of 16 μL/well. After standing at room temperature in a wet box for about 17 hours, the fluorescence intensity at 620 nm and 665 nm was measured under the condition of excitation wavelength of 337 nm by using EnVision 2103 Multilabel Reader (PerkinElmer Co., Ltd.).
Background: In TR-FRET formats the signal depends on donor and acceptor labels being close together.

Experiment [1] deals with T1, KRAS G12C/SOS/c-Raf complex (Homo sapiens, UniProt P01116, G12C).
T1 construct: Biotinylated AviTag-KRAS G12C (amino acid region 1-185, GDP)
Kind of experiment: KRAS G12C/SOS/c-Raf complex formation inhibitory action (TR-FRET). It is filed as biochemical. As to conditions: one hour at room temperature, read-out: IC50 (KRAS G12C/SOS/c-Raf complex formation inhibition). Summed up: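 Biotin-AviTag KRAS G12C (1-185, GDP-bound) was mixed with compound (4,000 to 4 nM stock dilutions), SOS (564-1049), GST-c-Raf (51-131) and GTP in pH 7.4 HEPES/NaCl/MgCl2/Tween buffer for 1 h at room temperature. Complex formation was read by TR-FRET with Eu-streptavidin and ULight-anti-GST (ex 337 nm, em 620/665 nm).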

The next experiment deals with NCI-H1373 cells. Kind of experiment: Anchorage-independent cell proliferation inhibitory action, NCI-H1373 spheroid three-dimensional culture. As to conditions: Homo sapiens, NCI-H1373, 144 h, NCI-H1373 spheroid, six days, CellTiter Glo; read-out: IC50 (anchorage-independent cell proliferation inhibition). The format is cell-based, Human. The method, boiled down: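 KRAS G12C NCI-H1373 cells were grown as spheroids in low-attachment U-bottom wells and treated the next day with compound, six points from 1,000 to 0.3 nM final. After six days at 37°C, viability was read by CellTiter-Glo luminescence. IC50 was fitted by Sigmoid-Emax regression, with DMSO set as 0% and cell-free medium as 100% inhibition.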
For orientation: In ATP-based viability assays light output follows the ATP content of the culture.

Experiment [2] concerns ERK phosphorylation (Thr 202/Tyr 204) in NCI-H1373 cells. The experiment is described as follows: ERK phosphorylation inhibitory action in NCI-H1373 (Cell ELISA). It is filed as cell-based, Human. The following applies: Homo sapiens, NCI-H1373, 2 h, NCI-H1373 cells, cultured for 2 hours, 100% = 1 μM Trametinib; read-out: IC50 (ERK phosphorylation inhibition). The method, boiled down: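 KRAS G12C NCI-H1373 cells (2×10^4/well) were treated with compound (six points, 1,000–0.3 nM final) for 2 h. Phospho-ERK Thr202/Tyr204 was measured by in-cell ELISA with an IRDye 800CW secondary antibody. IC50 was fitted by sigmoid-Emax regression against DMSO (0%) and 1 μM trametinib (100%).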
For orientation: In an ELISA, binding on a coated surface is turned into a signal by an enzyme label.

T1 sequence (P01116 1-185 isoform P01116-2 G12C, one chain of several): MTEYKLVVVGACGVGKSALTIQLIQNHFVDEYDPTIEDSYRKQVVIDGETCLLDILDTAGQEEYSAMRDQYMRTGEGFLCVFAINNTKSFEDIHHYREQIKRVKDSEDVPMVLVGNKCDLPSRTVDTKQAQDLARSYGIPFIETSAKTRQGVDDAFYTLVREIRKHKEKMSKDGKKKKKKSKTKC

The inhibition is the change of the read-out against control, counted positive when it falls. Consider `C=CC(=O)N1CC2(CCN(c3nc(OC4CCN(C)CC4)nc4c(OCC)c(-c5c(C)ccc6[nH]ncc56)c(C=C)cc34)CC2)C1` [Ex 5], for which the inhibition at 3 mg/kg with pERK in NCI-H1373 tumor (NCI-H1373, sc, Subcutaneous administration, 3 mg/kg, read-out: pERK inhibition (%)) came to 72%. Moreover, the IC50 in experiment [1] stood at 0.031 µM.
`C=CC(=O)N1CC2(CCN(c3nc(OC4CCN(CC(C)(C)O)CC4)nc4c(OCC(F)(F)F)c(-c5c(C)ccc6[nH]ncc56)c(C=C)cc34)CC2)C1` [Ex 31] had an inhibition at 10 mg/kg in the experiment with pERK in NCI-H1373 tumor (NCI-H1373, po, Oral administration, 10 mg/kg) of 51%. Further, the figures for the IC50 (in experiment [1]; in the experiment with NCI-H1373 cells) were 0.045 µM and 0.0083 µM, respectively.
Turning to `C=CC(=O)N1CC2(CCN(c3nc(OC4CCN(CCOC)CC4)nc4c(OCC(F)(F)C(F)(F)F)c(-c5c(C)ccc6[nH]ncc56)c(C=C)cc34)CC2)C1` [Example 79], the IC50 in experiment [2] is 0.016 µM; in experiment [1] it was 0.057 µM; in the experiment on NCI-H1373 cells it was 0.043 µM.
The matching figures for `C=CC(=O)N1CC2(CCN(c3nc(OC4CCN(CC(F)(F)F)CC4)nc4c(OCC(F)(F)F)c(-c5c(C)ccc6[nH]ncc56)c(C=C)cc34)CC2)C1` [Example 80]: 0.016 µM, 0.166 µM and 0.075 µM.
The corresponding values for `C=CC(=O)N1CC2(CCN(c3nc(OC4CCN(CCS(C)(=O)=O)CC4)nc4c(OCC(F)(F)F)c(-c5c(C)ccc6[nH]ncc56)c(C=C)cc34)CC2)C1` [Example 81] are 0.016 µM, 0.041 µM and 0.026 µM.
The matching figures for `C=CC(=O)N1CC2(CCN(c3nc(OC4CCN(CCCOC(F)(F)F)CC4)nc4c(OCC(F)(F)F)c(-c5c(C)ccc6[nH]ncc56)c(C=C)cc34)CC2)C1` [Example 83]: 0.016 µM, 0.108 µM and 0.051 µM.
Turning to `C=CC(=O)N1CC2(CCN(c3nc(OCCCN4CCOCC4)nc4c(OCC)c(-c5c(C)ccc6[nH]ncc56)c(C=C)cc34)CC2)C1` [Example 85], the IC50 in experiment [2] came to 0.017 µM; in experiment [1], 0.056 µM; in the experiment with NCI-H1373 cells it was 0.027 µM.
The matching figures for `C=CC(=O)N1CC2(CCN(c3nc(OC4CCN(S(C)(=O)=O)CC4)nc4c(OCC(F)(F)F)c(-c5c(C)ccc6[nH]ncc56)c(C=C)cc34)CC2)C1` [Example 86]: 0.012 µM, 0.072 µM and 0.037 µM.
Consider `C=CC(=O)N1CC2(CCN(c3nc(OC4CCN(CCOC)CC4)nc4c(OCC(F)(F)F)c(-c5cccc6[nH]ncc56)c(C5CC5)cc34)CC2)C1` [Example 87], for which the IC50 in experiment [2] was found to be 0.018 µM; in experiment [1], 0.039 µM; in the experiment with NCI-H1373 cells, 0.035 µM.
`C=CC(=O)N1CC2(CCN(c3nc(OC4CCN(C(=O)OC)CC4)nc4c(OCC(F)(F)F)c(-c5c(C)ccc6[nH]ncc56)c(C=C)cc34)CC2)C1` [Example 88]: the values for the IC50 (in experiment [2]; in experiment [1]; in the experiment with NCI-H1373 cells) were 0.019 µM, 0.148 µM and 0.09 µM, respectively.
On to `C=CC(=O)N1CC2(CCN(c3nc(N4CCN(C)C(CC)C4)nc4c(OCC(F)(F)F)c(-c5c(C)ccc6[nH]ncc56)c(C=C)cc34)CC2)C1` (centres unmarked) [Example 89], for which the IC50 in experiment [2] came to 0.019 µM; in experiment [1] it was 0.053 µM; in the experiment with NCI-H1373 cells, 0.04 µM.
The corresponding values for `C=CC(=O)N1CC2(CCN(c3nc(OC4CCN(C(C)=O)CC4)nc4c(OCC(F)(F)F)c(-c5c(C)ccc6[nH]ncc56)c(C=C)cc34)CC2)C1` [Example 90] are 0.022 µM, 0.055 µM and 0.053 µM.
Consider `C=CC(=O)N1CC2(CCN(c3nc(CC4CCN(CCOC)CC4)nc4c(OCC(F)(F)F)c(-c5c(C)ccc6[nH]ncc56)c(C=C)cc34)CC2)C1` [Example 91], for which the figures for the IC50 (in experiment [2]; in experiment [1]; with NCI-H1373 cells) were 0.022 µM, 0.042 µM and 0.039 µM, respectively.
For the compound `C=CC(=O)N1CC2(CCN(c3nc(OC4CCN(CC)CC4)nc4c(OC)c(-c5c(Cl)ccc6[nH]ncc56)c(C=C)cc34)CC2)C1` [Reference example 1, reference compound], the results for the IC50 (in experiment [2]; in experiment [1]; with NCI-H1373 cells) were 0.022 µM, 0.037 µM and 0.032 µM, respectively.
The matching figures for `C=CC(=O)N1CC2(CCN(c3nc(OC[C@@H]4CCCN4C)nc4c(OC)c(-c5c(C)ccc6[nH]ncc56)c(C=C)cc34)CC2)C1` [Reference example 2, reference compound]: 0.017 µM, 0.035 µM and 0.022 µM.
